Calls of active or inactive are those of the source.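 How the source made its calls: active means compounds giving half or more protection of infected cells from virus-caused growth loss, again on retest; inactive means the rest.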 *1 amine or outer side, *2 acyl side, *3 side chain or, on linkers, in order; H or OH if unused. Where a SMILES comes first, the peptide text is derived from it. [ ]: non-standard residue; d: D form. The star is where a group is joined. X3 = CC(=O)N(C)SCC(N[*:1])C(=O)[*:2]; Cbz = O=C(OCc1ccccc1)*; Bn = c1ccc(C*)cc1
System: CEM cells HIV-1 protection, formazan growth assay
Experiment: NCI AIDS Antiviral Assay
Settings: for IC50: measured here: growth of uninfected CEM cells
Procedure, shortened: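 Category rules: moderately active means at least 50% protection on retest, and confirmed active means 100% protection reproducibly. The underlying data came from a formazan growth assay in HIV-1-infected CEM cells.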

SMILES	EC50 [µM]	outcome	IC50 [µM]
CCN(CC)C(=O)N1CCN(C)CC1	> 200	inactive	> 200
N#C/C(=C\c1cccc([N+](=O)[O-])c1)C(=O)c1ccccc1	> 79.4		40.7
CCN(CC)Cc1c(C(=O)NCCO)[n+](=O)c2ccccc2n1[O-]	> 178		> 178
CNS(=O)(=O)NNS(=O)(=O)c1ccc(Cl)cc1	> 120		> 120
O=[N+]([O-])c1ccc(/C(=C\c2ccccc2)Cn2ccnc2)cc1	> 200		31.6
CC(Cn1c2c3ccccc3ccc2c2oc(=O)c3ccccc3c21)N(C)C (configuration not stated)	> 3.89		> 3.89
COc1nc(=O)n(C)cc1B(O)O	> 200		32.4
CCCc1cc(=O)oc2c3c(c4c(c12)OC(C)(C)[C@H](O)[C@H]4O)O[C@@H](C)[C@H](C)[C@@H]3O	> 200		115
C/C(=N\NC(=S)N1CCN(C2CCCCCC2)CC1)c1ccccn1	> 138		0.955
N#CC(C#N)=CSc1ccccc1		inactive	
O=S(=O)(N(c1ccc(Cl)cn1)S(=O)(=O)C(F)(F)F)C(F)(F)F	> 200		> 200
O=C(/C=C/c1ccccc1)c1ccc(NCc2nc3ccccc3[nH]2)cc1	> 20.4		11
COC(=O)/C(=N\Nc1nc(=S)[nH]n1N)C(C#N)c1ccc(Cl)cc1 (configuration not stated)	> 37.2		> 37.2
CCCCCCCCCCCCOC1OC(CO)C(O)C(O)C1O (configuration not stated)	> 85.1		38
S=c1[nH]nc(Cn2c3ccc(Br)cc3c3nc4ccccc4nc32)n1C1CCCCC1	> 200		51.3
O=S(=O)(O)C(F)(F)C(F)(F)C(F)(F)C(F)(F)C(F)(F)C(F)(F)C(F)(F)C(F)(F)F	> 200		> 200
CN(/N=C/c1cccc2cccnc12)c1ccccc1		inactive	
C=CCN1COc2c(cc3c4c(cccc24)C(=O)O3)C1	> 26.9		4.27
COc1cccc(-c2nc(-c3cnccn3)n(C/C=C/c3ccccc3)n2)c1	178		> 200
N#C/C(c1nc2ccccc2[nH]1)=c1\s/c(=C(/N)O)c(=N)n1-c1ccccc1	> 13.8		> 13.8
COC(=S)NP(=O)(NC(=S)OC)NC(=S)OC	> 200		> 200

SMILES	EC50 [µM]	outcome	IC50 [µM]
O=[N+]([O-])c1nccn1COCCO	> 1320		> 1320
Cc1cc(N2CCCC2)c([N+](=O)[O-])cc1[N+](=O)[O-]	> 200		> 200
CCOc1ccc(C(C2=C(O)c3ccccc3C(=O)C2=O)C2=C(O)c3ccccc3C(=O)C2=O)cc1OC	> 200		29.5
COC(=O)C1=C(CS(=O)c2ccccc2[N+](=O)[O-])C2C=CC1C2 (configuration not stated)		inactive	
COc1ccc2c(c1)N=C(N)n1c(nc3ccccc31)S2	> 200		6.61
N/C(=N/n1c(=S)[nH]c2ccccc2c1=O)Nn1c(=S)[nH]c2ccccc2c1=O	> 200		19.1
NC(Cc1ccc(N(CCCl)CCCl)cc1)C(=O)O (configuration not stated)	> 200		12
C=C(Br)CN1CCC2(c3ccccc3)C(O)C([Se]c3ccccc3)CCC12 (configuration not stated)	> 27.5		> 27.5
CCCc1cc(-c2ccc(-c3cc(CCC)c(C=O)[nH]3)s2)[nH]c1C=O	> 5.62		1.62
COCCOC(=O)NCn1cc(-c2ccccc2)nn1	> 200		> 200
CC12CC(OC1=O)C(=O)c1ccccc12 (configuration not stated)	> 468		209
CC(=O)OC(C)(C)CCC(=O)[C@](C)(O)[C@H]1[C@H](O)C[C@@]2(C)[C@@H]3CCc4c(cc(OC5OC(CO)C(O)C(O)C5O)c(O)c4C)C3(C)C(=O)C[C@]12C (some centres not stated)	> 200		> 200
COc1cc2c(cc1OC)C(Cl)C(c1cc(OC)c(OC)c(OC)c1)=C2Cl (configuration not stated)		inactive	
CSc1c(C#N)c(S)[nH]c(=O)c1C#N	83.2		126
CCC(=O)N1C(=O)C(C)C23c4cc(OC)c(OC)cc4C(=O)N2CCCN13 (configuration not stated)	> 240		> 240
CC(C)=CCCc1c(C)ccc2c1C(=O)C(=O)C(C(C)C)=C2O	> 57.5		33.9
CC#N.CC#N.COC(=O)[C@@H]1CN(C(C)=O)C(=O)[N-]1.COC(=O)[C@@H]1CN(C(C)=O)C(=O)[N-]1.COC(=O)[C@@H]1CN(C(C)=O)C(=O)[N-]1.COC(=O)[C@@H]1CN(C(C)=O)C(=O)[N-]1.[Rh+2].[Rh+2]	> 200		> 200
O=C1NC(=O)C(=CN2C(=O)/C(=C/c3ccc([N+](=O)[O-])cc3)SC2=S)C(=O)N1	> 200		115
Cc1ccc(C2=Nn3c(nc4sc(-c5ccccc5)cc4c3=O)SC2)cc1	> 100		> 100
C[C@]12CC[C@@H](O)C[C@H]1CC[C@@H]1[C@@H]2[C@@H](O)C[C@@]2(C)[C@H]1CC[C@]2(O)[C@@H](O)CO	> 200		> 200
CCOC(=O)C(=Cn1c(=S)[nH]c2cc(C)ccc21)C(=O)OCC	> 200		> 200

SMILES	EC50 [µM]	outcome	IC50 [µM]
CCN(CC)CC(=O)N1CCc2c([nH]c3ccccc23)C1c1cccnc1 (configuration not stated)	> 138		> 138
O=C(Nc1ccccc1C(=O)O)/C(=C/c1ccccc1)NC(=O)c1ccccc1	> 200		> 200
[N-]=[N+]=NC1=NNC2(C(=O)N1)c1ccccc1-c1ccccc12	> 100		> 100
O=C(O)CC(NC(=O)C(F)(F)F)C(=O)NC1Cc2ccccc2OC1=O (configuration not stated)	> 200		> 200
CCCCCCCCCCCCNC(=S)OC		inactive	
O=C(O)c1cc(Cl)n[nH]c1=O	> 1410		> 1410
Cc1nc(-[n+]2nc(-c3ccncc3)nn2-c2ccccc2)sc1C	> 200		17
CCOC(=O)C(NC(=O)c1ccccc1)(Nc1ccc(S(=O)(=O)Nc2cc(C)nc(C)n2)cc1)C(F)(F)F (configuration not stated)	> 200		> 200
COc1ccc2c(c1)CCN1C3=C(CCC3)C(=O)C[C@@H]21		inactive	
CC(=O)N(C)SCC(NC(=O)C(Cc1ccccc1)NC(=O)OCc1ccccc1)C(=O)NC(Cc1ccccc1)C(=O)NC(Cc1c[nH]c2ccccc12)C(=O)NC(CCCCNC(=O)OCc1ccccc1)C(=O)NC(C(=O)NC(CSN(C)C(C)=O)C(=O)NC(C(N)=O)C(C)OCc1ccccc1)C(C)OCc1ccccc1 (configuration not stated) (Cbz-F[X3]FWK(Cbz)T(Bn)[X3]T(Bn)-NH2; configuration not given here)	55		85.1
CO[C@@H]1C[C@H]2[C@@H]3CC[C@H]([C@@H](C)CO)[C@@]3(C)CC[C@@H]2[C@@]2(C)CC[C@H]3C[C@]312	> 200		102
N=c1ccn2c(n1)OC1C(OC(=O)C34CC5CC(CC(C5)C3)C4)C(COC(=O)C34CC5CC(CC(C5)C3)C4)OC12 (configuration not stated)		inactive	
CC(=O)Nc1ccc(/C=c2\sc3nnc(CCC(=O)Nc4ccccc4Cl)n3c2=O)cc1	> 28.8		> 28.8
C=CCN(N=O)C(=O)N(CCCC(NC(C)=O)C(=O)NCc1ccccc1)Cc1ccccc1 (configuration not stated)	> 40.7		> 40.7
COC(=O)c1ccc(C)cc1C1CN=NC12Cc1cc(C)c(C)cc1C2=O (configuration not stated)	> 200		22.4
Brc1cccc(C2ON=C(c3ccccc3)N2C23CC4CC(CC(C4)C2)C3)c1 (configuration not stated)	> 200		> 200
COc1ccc2c(c1)-c1c(c3ccccc3n1CCN1CCOCC1)CC2		inactive	
NC(=O)c1n[nH]n(-c2ccccc2)c1=O	> 200		> 200
O=c1c2ccccc2c2c1c1c3ccccc3c(=O)c1c1c3ccccc3c(=O)c21	> 200		> 200
N#Cc1cnc2nc1NCCCCCCC2	> 204		132
CC1=CC23C(COC(=O)C24CO4)C(C(=O)O)=CC3C1C (configuration not stated) (tested in a mixture with another compound)	> 200		47.9

SMILES	EC50 [µM]	outcome	IC50 [µM]
NC(=O)CCC(NC(=O)C(F)(F)F)C(=O)O (configuration not stated)		inactive	
CCOC(=O)/C=C(\C)NCCSSCCN/C(C)=C/C(=O)OCC	> 200		50.1
N#Cc1nsnc1-c1nc(-c2nsnc2C#N)nc(-c2nsnc2C#N)n1	> 200		141
S=C(N/N=C/c1ccccc1)Nc1ccc(Oc2ccc(NC(=S)N/N=C/c3ccccc3)cc2)cc1	8.91		11.7
C1CN(C23OC4(N5CCOCC5)C5C6CC(C7C6C4C72)C53)CCO1 (configuration not stated)	> 200		> 200
C1=CC2CCC1C1CN(CCCN3CCOCC3)CC21 (configuration not stated)	> 708		> 708
O=C1/C(=C/c2cccc(O)c2)COc2ccccc21	> 123		4.27
CC1(C)CCCOc2cccc(c2)OCCCC(C)(C)C1=O	> 200		> 200
NC(CSP(=O)(O)O)=NCC12CC3CC(CC(C3)C1)C2		inactive	
Cc1cccc(C2=NC(=C3CCCCC3)C(=O)O2)c1	> 200		38
CC(=O)CNC(=O)OC(C)(C)C		inactive	
O=[N+]([O-])c1ccccc1SSc1ccccc1[N+](=O)[O-]	> 12.3	inactive	7.41
CCOC(=O)c1c(-c2ccccc2)oc(-c2ccccc2)c1C(=O)OCC		inactive	
CN(NC(=O)c1ccco1)C1=NCCCCN1	> 200		> 200
CCc1ccc(Nc2ccc([N+](=O)[O-])cc2[N+](=O)[O-])cc1		inactive	
Oc1ccc(CCc2nc3ccccc3[nH]2)cc1	> 200		42.7
COc1ccc2c(O)c(S(=O)(=O)c3ccc(C)cc3)c(=O)oc2c1	> 200		132
OCCN1C(c2ccccc2)=CN2C=CSC21 (configuration not stated)	> 200		29.5
COC1=NS(=O)(=O)C2CCCCCCC2O1 (configuration not stated)	> 1000		> 1000
CCOC(=O)C(CS)NC(=O)CCCCCCCC(=O)O (configuration not stated)	> 100		79.4
CC(C)/C(Cl)=N\OC(=O)Nc1ccc(C#N)cc1	> 200		4.27
